Columns and labels:
[1] = target: Cbl-b (Homo sapiens (Human), UniProt Q13191); assay: Cbl-b LCK Ub TR-FRET assay (Cbl-b Lck HTRF); type: biochemical; details: for IC50: Cbl-b LCK Ub TR-FRET, Example 121; for (fold-selectivity) Cbl-b and C-Cbl Selectivity: ratio C-cbl Lck HTRF IC50 / Cbl-b Lck HTRF IC50
Summary of the method: (§1)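 Signal is read once the detection mix has stood 20 min at ambient temperature. Curves are anchored by DMSO as maximum and by omission of LCK as minimum.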

[2] = target: Human Cbl-b (residues 40-426) (Homo sapiens (Human), UniProt Q13191); assay: Cbl-b SPR assay; type: binding; details: for Fold of selectivity: C-cbl SPR Kd vs Cbl-b SPR Kd; for Kd: SPR, 20° C.
Chain of Human Cbl-b (residues 40-426) (Q13191 40-426): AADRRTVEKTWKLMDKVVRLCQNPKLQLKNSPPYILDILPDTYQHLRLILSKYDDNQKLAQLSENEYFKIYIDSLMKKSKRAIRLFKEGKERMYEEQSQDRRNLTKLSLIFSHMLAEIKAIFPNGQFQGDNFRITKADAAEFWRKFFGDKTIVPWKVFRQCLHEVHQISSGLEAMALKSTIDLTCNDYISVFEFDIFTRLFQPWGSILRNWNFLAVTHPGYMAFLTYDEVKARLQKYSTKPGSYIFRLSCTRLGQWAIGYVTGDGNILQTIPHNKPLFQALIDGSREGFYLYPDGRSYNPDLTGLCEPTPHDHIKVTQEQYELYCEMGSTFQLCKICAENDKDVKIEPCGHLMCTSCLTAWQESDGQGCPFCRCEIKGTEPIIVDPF
Summary of the method: (§2)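 Captured protein (1300-1500 RU for both isoforms) was probed in multi-cycle kinetics with 6 concentrations in 2-fold dilution, 60 s contact, 40 μl/min, dissociation 120-1200 s, double-referenced. Kinetic and affinity parameters came from a 1:1 binding fit. For slow off-rates, kd was set independently by a chaser-based method.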

[3] = target: c-Cbl (Homo sapiens (Human), UniProt P22681); assay: C-Cbl LCK Ub TR-FRET assay (C-cbl Lck HTRF); type: biochemical
Chain of c-Cbl (P22681 47-435): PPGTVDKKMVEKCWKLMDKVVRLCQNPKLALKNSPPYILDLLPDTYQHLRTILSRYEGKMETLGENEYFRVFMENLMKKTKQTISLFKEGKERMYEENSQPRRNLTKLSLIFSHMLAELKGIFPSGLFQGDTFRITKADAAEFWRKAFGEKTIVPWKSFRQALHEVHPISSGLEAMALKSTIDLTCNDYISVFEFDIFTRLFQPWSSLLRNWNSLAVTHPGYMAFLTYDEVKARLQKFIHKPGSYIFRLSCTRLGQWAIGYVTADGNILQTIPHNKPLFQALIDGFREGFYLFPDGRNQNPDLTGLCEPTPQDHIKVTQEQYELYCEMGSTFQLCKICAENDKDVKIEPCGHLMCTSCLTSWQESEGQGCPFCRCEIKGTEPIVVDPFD
Summary of the method: as §1

[4] = target: c-Cbl (residues 47-435) (Homo sapiens (Human), UniProt P22681); assay: c-Cbl SPR assay; type: binding; details: 20° C.
Chain of c-Cbl (residues 47-435) (P22681 47-435): as above
Summary of the method: as §2

Chain of Cbl-b (Q13191 40-426): as the sequence (Q13191 40-426) above

Structure (SMILES)	IC50 [1]	(fold-selectivity) Cbl-b and C-Cbl Selectivity [1]	Fold of selectivity [2]	Kd [2]	IC50 [3]	Kd [4]
CO[C@H]1C[C@](c2cccc(N3Cc4c(cc(CNCC5CC5(F)F)cc4C(F)(F)F)C3=O)c2)(c2nncn2C)C1 (stereo partly drawn) [Compound 482, 6-((((2,2-difluorocyclopropyl)methyl)amino)methyl)-2-(3-((1r,3r)-3-methoxy-1-(4-methyl-4H-1,2,4-triazol-3-yl)cyclobutyl)phenyl)-4-(trifluoromethyl)isoindolin-1-one]	0.0053 µM	3.7x	15×	0.0019 µM	0.02 µM	0.03 µM
CO[C@H]1C[C@](c2cccc(N3Cc4c(cc(CNCC(C)(C)F)cc4C(F)(F)F)C3=O)c2)(c2nncn2C)C1 [Compound 483, 6-(((2-fluoro-2-methylpropyl)amino)methyl)-2-(3-((1r,3r)-3-methoxy-1-(4-methyl-4H-1,2,4-triazol-3-yl)cyclobutyl)phenyl)-4-(trifluoromethyl)isoindolin-1-one]	0.01 µM	5.8x	18×	0.0046 µM	0.058 µM	0.084 µM
CO[C@H]1C[C@](c2cccc(N3Cc4c(cc(CN[C@]5(C)C[C@H](O)C5)cc4C(F)(F)F)C3=O)c2)(c2nncn2C)C1 [Compound 484, 6-((((1s,3S)-3-hydroxy-1-methylcyclobutyl)amino)methyl)-2-(3-((1r,3R)-3-methoxy-1-(4-methyl-4H-1,2,4-triazol-3-yl)cyclobutyl)phenyl)-4-(trifluoromethyl)isoindolin-1-one]	0.026 µM	10x	13×	0.013 µM	0.26 µM	0.2 µM
CO[C@H]1C[C@](c2cccc(N3Cc4c(cc(CNC56CC(C5)C6)cc4C(F)(F)F)C3=O)c2)(c2nncn2C)C1 [Compound 485, 6-((bicyclo[1.1.1]pentan-1-ylamino)methyl)-2-(3-((1r,3r)-3-methoxy-1-(4-methyl-4H-1,2,4-triazol-3-yl)cyclobutyl)phenyl)-4-(trifluoromethyl)isoindolin-1-one]	0.013 µM	5.2x	14×	0.0074 µM	0.067 µM	0.11 µM
CO[C@H]1C[C@](c2cccc(N3Cc4c(cc(CNCC5(F)CC5)cc4C(F)(F)F)C3=O)c2)(c2nncn2C)C1 [Compound 486, 6-((((1-fluorocyclopropyl)-methyl)amino)methyl)-2-(3-((1r,3r)-3-methoxy-1-(4-methyl-4H-1,2,4-triazol-3-yl)cyclobutyl)phenyl)-4-(trifluoromethyl)isoindolin-1-one]	0.018 µM	6.0x	11×	0.0082 µM	0.11 µM	0.098 µM

More lines, now with the values ahead:

IC50 [1]	(fold-selectivity) Cbl-b and C-Cbl Selectivity [1]	Fold of selectivity [2]	Kd [2]	IC50 [3]	Kd [4]	Structure (SMILES)
0.019 µM	7.4x	41×	0.0049 µM	0.15 µM	0.21 µM	COCC1(NCc2cc3c(c(C(F)(F)F)c2)CN(c2cccc([C@]4(c5nncn5C)C[C@H](OC)C4)c2)C3=O)CC1 [Compound 487, 2-(3-((1r,3r)-3-methoxy-1-(4-methyl-4H-1,2,4-triazol-3-yl)cyclobutyl)phenyl)-6-(((1-(methoxymethyl)cyclopropyl)amino)methyl)-4-(trifluoromethyl)isoindolin-1-one]
0.0058 µM	2.4x	13×	0.001 µM	0.014 µM	0.013 µM	CO[C@H]1C[C@](c2cccc(N3Cc4c(cc(CNC5CC(C)(C)C5)cc4C(F)(F)F)C3=O)c2)(c2nncn2C)C1 [Compound 488, 6-(((3,3-dimethylcyclobutyl)amino)methyl)-2-(3-((1r,3r)-3-methoxy-1-(4-methyl-4H-1,2,4-triazol-3-yl)cyclobutyl)phenyl)-4-(trifluoromethyl)isoindolin-1-one]
